Data published in PubChem BioAssay (NCI).
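Dose response: 5 concentrations. Exposure: 48 h. Format: 96-well plates. Endpoint: linear interpolation; highest concentration if not reached. At the TGI there is no net growth.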

How the values were obtained:
Assay in all cases: NCI tumour cell line growth inhibition, 48 h
A498 renal = tested on: A498 renal
A549 NSCLC = tested on: A549 NSCLC
CAKI-1 renal = tested on: CAKI-1 renal
CCRF-CEM leukemia = tested on: CCRF-CEM leukemia
COLO 205 colon = tested on: COLO 205 colon
DLD-1 colon = tested on: DLD-1 colon
DMS 114 small cell lung = tested on: DMS 114 small cell lung
DMS 273 small cell lung = tested on: DMS 273 small cell lung
EKVX NSCLC = tested on: EKVX NSCLC
HCC-2998 colon = tested on: HCC-2998 colon
HCT-116 colon = tested on: HCT-116 colon
HCT-15 colon = tested on: HCT-15 colon
HL-60(TB) leukemia = tested on: HL-60(TB) leukemia
HOP-18 NSCLC = tested on: HOP-18 NSCLC
HOP-62 NSCLC = tested on: HOP-62 NSCLC
HOP-92 NSCLC = tested on: HOP-92 NSCLC
HT29 colon = tested on: HT29 colon
IGROV1 ovarian = tested on: IGROV1 ovarian
K-562 leukemia = tested on: K-562 leukemia
KM12 colon = tested on: KM12 colon
KM20L2 colon = tested on: KM20L2 colon
LOX IMVI melanoma = tested on: LOX IMVI melanoma
M19-MEL melanoma = tested on: M19-MEL melanoma
MALME-3M melanoma = tested on: MALME-3M melanoma
MCF7 breast = tested on: MCF7 breast
MOLT-4 leukemia = tested on: MOLT-4 leukemia
NCI-H226 lung = tested on: NCI-H226 lung
NCI-H23 lung = tested on: NCI-H23 lung
NCI-H460 lung = tested on: NCI-H460 lung
NCI-H522 lung = tested on: NCI-H522 lung
NCI/ADR-RES ovarian = tested on: NCI/ADR-RES ovarian
OVCAR-3 ovarian = tested on: OVCAR-3 ovarian
OVCAR-4 ovarian = tested on: OVCAR-4 ovarian
OVCAR-5 ovarian = tested on: OVCAR-5 ovarian
OVCAR-8 ovarian = tested on: OVCAR-8 ovarian
P388 leukemia = tested on: P388 leukemia
P388/ADR leukemia = tested on: P388/ADR leukemia
RPMI-8226 leukemia = tested on: RPMI-8226 leukemia
RXF 393 renal = tested on: RXF 393 renal
SF-268 CNS = tested on: SF-268 CNS
SF-295 CNS = tested on: SF-295 CNS
SF-539 CNS = tested on: SF-539 CNS
SK-MEL-2 melanoma = tested on: SK-MEL-2 melanoma
SK-MEL-28 melanoma = tested on: SK-MEL-28 melanoma
SK-MEL-5 melanoma = tested on: SK-MEL-5 melanoma
SK-OV-3 ovarian = tested on: SK-OV-3 ovarian
SN12C renal = tested on: SN12C renal
SN12K1 renal = tested on: SN12K1 renal
SNB-19 CNS = tested on: SNB-19 CNS
SNB-75 CNS = tested on: SNB-75 CNS
SNB-78 CNS = tested on: SNB-78 CNS
SW-620 colon = tested on: SW-620 colon
U251 CNS = tested on: U251 CNS
UACC-257 melanoma = tested on: UACC-257 melanoma
UACC-62 melanoma = tested on: UACC-62 melanoma
UO-31 renal = tested on: UO-31 renal
XF 498 CNS = tested on: XF 498 CNS

## CC(=O)Oc1ccc(C2COc3cc(OC(C)=O)c(OC(C)=O)cc3C2)cc1 (configuration not stated)
A498 renal
  TGI: 13.8 µM
A549 NSCLC
  TGI: 57.3 µM
CAKI-1 renal
  TGI: 27.3 µM
CCRF-CEM leukemia
  TGI: 58.1 µM
COLO 205 colon
  TGI: 35.4 µM
DLD-1 colon
  TGI: 38 µM
DMS 114 small cell lung
  TGI: 17.1 µM
DMS 273 small cell lung
  TGI: 61.6 µM
EKVX NSCLC
  TGI: 32 µM
HCC-2998 colon
  TGI: 46.8 µM
HCT-116 colon
  TGI: 33.9 µM
HCT-15 colon
  TGI: 40.8 µM
HL-60(TB) leukemia
  TGI: 20.3 µM
HOP-18 NSCLC
  TGI: 46.8 µM
HOP-62 NSCLC
  TGI: 48 µM
HOP-92 NSCLC
  TGI: 24.9 µM
HT29 colon
  TGI: > 81.5 µM
IGROV1 ovarian
  TGI: 31.2 µM
K-562 leukemia
  TGI: 51.7 µM
KM12 colon
  TGI: 69.5 µM
KM20L2 colon
  TGI: 75.5 µM
LOX IMVI melanoma
  TGI: > 55.5 µM
M19-MEL melanoma
  TGI: 33.2 µM
MALME-3M melanoma
  TGI: 31 µM
MCF7 breast
  TGI: 35.2 µM
MOLT-4 leukemia
  TGI: 62 µM
NCI-H226 lung
  TGI: 54.7 µM
NCI-H23 lung
  TGI: 37.7 µM
NCI-H460 lung
  TGI: 47.3 µM
NCI-H522 lung
  TGI: 7.78 µM
NCI/ADR-RES ovarian
  TGI: 48.7 µM
OVCAR-3 ovarian
  TGI: 25.2 µM
OVCAR-4 ovarian
  TGI: 29.1 µM
OVCAR-5 ovarian
  TGI: > 97.1 µM
OVCAR-8 ovarian
  TGI: 35.6 µM
P388 leukemia
  TGI: 37.1 µM
P388/ADR leukemia
  TGI: > 53.6 µM
RPMI-8226 leukemia
  TGI: 58.8 µM
RXF 393 renal
  TGI: 23.8 µM
SF-268 CNS
  TGI: 51.6 µM
SF-295 CNS
  TGI: 58.5 µM
SF-539 CNS
  TGI: 40.2 µM
SK-MEL-2 melanoma
  TGI: 41.5 µM
SK-MEL-28 melanoma
  TGI: 34.2 µM
SK-MEL-5 melanoma
  TGI: 6.63 µM
SK-OV-3 ovarian
  TGI: 38.7 µM
SN12C renal
  TGI: 52 µM
SN12K1 renal
  TGI: 35.9 µM
SNB-19 CNS
  TGI: > 100 µM
SNB-75 CNS
  TGI: 32.6 µM
SNB-78 CNS
  TGI: 80.2 µM
SW-620 colon
  TGI: 35.9 µM
U251 CNS
  TGI: 60.4 µM
UACC-257 melanoma
  TGI: 34.9 µM
UACC-62 melanoma
  TGI: 24.2 µM
UO-31 renal
  TGI: 59.4 µM
XF 498 CNS
  TGI: 25.9 µM
